# From patent publication US10294246B2, “Substituted boronic acids and boronate esters as immunoproteasome inhibitors” (MERCK PATENT GMBH, priority 2014, dated 2019)
# Key:
# [1] = molecular target: human immunoproteasome (LMP7) (Homo sapiens (Human), UniProt P28062); assay: Determination of LMP7 activity (fluorescence intensity assay, Suc-LLVY-AMC); type: biochemical; conditions: for Selectivity LMP7 vs Beta5: LMP7 versus Beta5; for IC50: purified human immunoproteasome 0.25 nM, Suc-LLVY-AMC 40 μM
# How it was run: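 0.25 nM purified human immunoproteasome preincubated 20 min at 25 °C with serially diluted compounds in 50 mM Tris pH 7.4, 0.03% SDS, 1 mM EDTA, 1% DMSO. Reaction started with 40 μM Suc-LLVY-AMC, run 60 min at 37 °C. Fluorescence read at ex 350/em 450 nm.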
# [2] = molecular target: human constitutive proteasome (Beta5) (Homo sapiens (Human), UniProt P28074); assay: Determination of Beta5 activity (fluorescence intensity assay, Suc-LLVY-AMC); type: biochemical; conditions: purified human constitutive proteasome 1.25 nM, Suc-LLVY-AMC 40 μM
# How it was run: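 Purified constitutive proteasome (1.25 nM) was preincubated with compounds 20 min at 25 °C in 50 mM Tris pH 7.4, 0.03% SDS, 1 mM EDTA, 1% DMSO. Suc-LLVY-AMC (40 μM) was then added for 60 min at 37 °C. AMC fluorescence was read at ex 350/em 450 nm.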
# [3] = molecular target: LMP7 subunit of the immunoproteasome (Homo sapiens (Human), UniProt P28062); conditions: Singh et al., Br. J. Hematology 152(2): 155-163; cited from earlier work
SMILES,Selectivity LMP7 vs Beta5 [1],IC50 [1] [nM],IC50 [2] [nM],selectivity for the LMP7 subunit of the immunoproteasome [3] [fold]
"CCOc1ccc(CC(=O)N[C@@H](C[C@@H]2COc3ccccc32)B(O)O)nc1 [Compound No. 131, [(1R)-2-[(3S)-2,3-dihydrobenzofuran-3-yl]-1-[[2-(5-ethoxy-2-pyridyl)acetyl]amino]ethyl]boronic acid]",+++++ (Selectivity ≥ 100),< 50,500 to 5000,
"O=C(Cc1ccccc1)N[C@@H](C[C@@H]1COc2c(Cl)cccc21)B(O)O [Compound No. 132, [(1R)-2-[(3S)-7-chloro-2,3-dihydrobenzofuran-3-yl]-1-[(2-phenylacetyl)amino]ethyl]boronic acid]",+++++ (Selectivity ≥ 100),< 50,500 to 5000,
"O=C(Cc1ccccc1)N[C@@H](C[C@H]1COc2c(Cl)cccc21)B(O)O [Compound No. 133, [(1R)-2-[(3R)-7-chloro-2,3-dihydrobenzofuran-3-yl]-1-[(2-phenylacetyl)amino]ethyl]boronic acid]",++ (10 ≤ Selectivity < 50),500 to 5000,> 5000,
"N#Cc1ccccc1CC(=O)N[C@@H](C[C@@H]1COc2c(Cl)cccc21)B(O)O [Compound No. 134, [(1R)-2-[(3S)-7-chloro-2,3-dihydrobenzofuran-3-yl]-1-[[2-(2-cyanophenyl)acetyl]amino]ethyl]boronic acid]",+++++ (Selectivity ≥ 100),< 50,500 to 5000,
"N#Cc1ccccc1CC(=O)N[C@@H](C[C@H]1COc2c(Cl)cccc21)B(O)O [Compound No. 135, [(1R)-2-[(3R)-7-chloro-2,3-dihydrobenzofuran-3-yl]-1-[[2-(2-cyanophenyl)acetyl]amino]ethyl]boronic acid]",+++++ (Selectivity ≥ 100),50 to 500,> 5000,
"O=C(CCOc1ccccc1)N[C@@H](C[C@@H]1COc2ccccc21)B(O)O [Compound No. 136, [(1R)-2-[(3S)-2,3-dihydrobenzofuran-3-yl]-1-(3-phenoxypropanoylamino)ethyl]boronic acid]",+++++ (Selectivity ≥ 100),< 50,50 to 500,
CC1=C(C(=O)N[C@H](C)C(=O)N[C@@H](Cc2c[nH]c3ccccc23)C(=O)N[C@@H](Cc2ccccc2)C(=O)[C@@]2(C)CO2)Cc2ccccc21 [PR-924],,,,100
